Results published in PMC7615709 (Antiviral research, 2007).

Biological target: T1, FLAG-p7 (HCV p7, genotype 1b) (Hepatitis C virus isolate HC-J4, UniProt O92972)
T1 sequence (O92972 747-809 limits assumed): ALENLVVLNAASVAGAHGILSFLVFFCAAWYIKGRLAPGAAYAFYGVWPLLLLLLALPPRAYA
Experiment: carboxyfluorescein release from liposomes, fluorimetry, initial rates
Format: biochemical

NC12CC3CC(CC(C3)C1)C2 [amantadine]
IC50: ~2 µM
